Counter-ions that a name gives are not always drawn. Like-named read-outs stand apart in the source and are kept apart here. Blank lines part the entries; values can stand above or below the molecule they belong to.
What was measured:
U87MG cells [1] = assay: U87MG human glioblastoma cell viability, SRB assay, 72 hours; format: cell-based
Protocol: The following protocol was used to measure the effects of compounds of the invention on U87MG cell viability.
U87MG cells were grown in their recommended growth media/supplements (ATCC). Cells were seeded at a concentration of 5000 cells per well into 96 well plates overnight at 37° C., 5% CO2. Cells were treated with relevant concentrations of test compound for 72 hours. After 72 hours incubation, viability was established using sulforhodamine B (SRB) colorimetric assay. Percentage viability was calculated against the mean of the DMSO treated control samples, and IC50 values for inhibition of cell growth were calculated using GraphPad Prism software by nonlinear regression (4 parameter logistic equation).

[2] = test system: panel of 48 cancer-derived cell lines; assay: Proliferation assay on diverse cancer cell line panel, CellTiter-Glo, 72 hours; format: cell-based; details: 72 hours
Protocol: Screening against diverse cancer cell lines was performed to identify tumour types displaying sensitivity to atropisomers A-1 and A-2. A panel of 48 cancer-derived cell lines was screened in a high-throughput proliferation assay using dilutions of atropisomers A-1/A-2. Cell lines that were screened included those representing cancer of the pancreas, large intestine/colorectum, lung, brain and nerves, and lymphoma and leukaemia cell lines. Cell lines were treated with serial half-log dilutions of compound and assayed 72 hours later for proliferation using CellTiter-Glo Assay (Promega). IC50 values were calculated by fitting the dose-response data using a nonlinear regression model.

[3] = Chiral stability (interconversion) of isolated atropisomers on heating, chiral HPLC; format: physicochemical; details: for % ee of sample @ 40° C. / % ee sample @ 80° C.: EtOH solution, listed as A-1
Protocol: Stability studies were carried out on the isolated atropisomers, atropisomers A-1 and A-2. To assess the interconversion of atropisomer A-1 and atropisomer A-2 chiral stability was monitored at 40° C. and 80° C. […] 1. 2×1 mg of pure atropisomer was dissolved in 1 mL of EtOH in a sealed-dram vial. 2. One set of vials was heated at 40° C. and another set at 80° C. 3. […] 4. Analysis was carried out at the following timepoints: 0 h, 24 h, 48 h, 72 h, 96 h and 240 h for the samples kept at 40° C. and 24 h, 96 h and 240 h for the samples kept at 80° C. using Chiral HPLC method 5

U87MG cells [4] = assay: Mitotic phenotype study in U87MG cells; format: cell-based, human; details: 0.03 μM, listed as A-1
Protocol: Distinct mitotic phenotypes are induced following inhibition of PLK1 and PLK4 in cells. […] Centriole assembly is controlled by PLK4, with inhibitors inducing a multipolar spindle phenotype due to centrosome defects which results in abnormal cyokinesis (Wong et al., 2015. Science 348(6239); 1155-1160). Cells were plated at 10 000/well in 96-well plates and incubated overnight. The following day atropisomer A-2 stocks in DMSO were diluted in medium then added to cells with a maximum final DMSO concentration on cells of 0.2%. Cells were incubated with the compound for 24 hours then fixed in 3.7% formaldehyde. Cells were permeabilised with 0.1% Triton X-100 then incubated with anti-phospho-histone H3 (Ser10) antibody (Abcam). The cells were washed with PBS then incubated with AlexaFluor 488 labelled goat anti-rabbit IgG (Invitrogen) in the presence of 4 ug/mL Hoechst 33342 (Invitrogen). Cells were washed in PBS then imaged on an Arrayscan VTi HCS instrument using the Target Activation V4 Bioapplication. A user-defined threshold was applied to identify mitotic cells based on the intensity of phospho-histone H3 staining. In a separate study, following the above protocol and using single compound concentrations of 0.03 μM for each of atropisomer A-1 and atropisomer A-2, the frequency of observed mitotic phenotypes in U87MG cells was manually assessed and classified into the following phenotypes: non-congressed chromosomes, multipolar spindles/abnormal cytokinesis, monopolar spindles, normal prometaphase, normal metaphase for each of A-1 and A-2.

[5] = test system: wild-type KRAS HeLa cells; assay: HeLa cell viability, wild-type KRAS transgene, Cell Titre Blue; format: cell-based; details: 72 hours, listed as A-4, read-out: WT GI50
Protocol: (§1) Atropisomers A-1, A-2, A-3 and A-4 were tested on HeLa cells engineered to inducibly express wild-type or oncogenic KRasG12V transgenes using the FLP-in/T-Rex system (Invitrogen). Cells were plated, and then treated with or without Doxycycline to induce transgene expression, and then treated with serially-diluted PBD inhibitors. After 72 hours of incubation, cell viability was assessed using the Cell Titre Blue reagent (Promega) and a BMG Pherastar plate reader. The effect of PBD inhibition on cell viability with either wild-type or oncogenic G12V KRAS was assessed using GraphPad Prism.
(§2) From the results obtained by following the above protocol, the GI50 values against the wild-type and KRAS G12V HeLa cell line of each of the atropisomers were determined as shown in Table 12.

KRAS G12V HeLa cell line = assay: HeLa cell viability, oncogenic KRasG12V transgene, Cell Titre Blue; format: cell-based; details: KRAS G12V HeLa cells, 72 hours; listed as A-4
Protocol: as §1, §2

[6] = Gravimetric vapour sorption (GVS); format: physicochemical
Protocol: Sorption isotherms were obtained using a Hiden Isochema moisture sorption analyser (model IGAsorp), controlled by IGAsorp Systems Software V6.50.48. The sample was maintained at a constant temperature (25° C.) by the instrument controls. The humidity was controlled by mixing streams of dry and wet nitrogen, with a total flow of 250 ml·min-1. The instrument was verified for relative humidity content by measuring three calibrated Rotronic salt solutions (10-50-88%). The weight change of the sample was monitored as a function of humidity by a microbalance (accuracy +/−0.005 mg). A defined amount of sample was placed in a tared mesh stainless steel basket under ambient conditions. A full experimental cycle typically consisted of three scans (sorption, desorption and sorption) at a constant temperature (25° C.) and 10% RH intervals over a 0-90% range (60 minutes for each humidity level).

[7] = Gravimetric solubility in water; format: physicochemical
Protocol: The solubility in water of the salts was measured using a gravimetric solubility protocol.
(§3) 1 ml of water was charged into crystallisation tubes. The solid was weighed into a tared glass vial, added in portions to the solutions and the vial weighed after each addition until a hazy solution was observed. The amount in mg was then calculated to give the solubility in mg/ml.
as §3, with “The solubility in water of the salts was measured using a gravimetric solubility protocol. Thus, 1” for “1”, “mg/mL.” for “mg/ml.”

IC50 (U87MG cells [1]): 4.6 µM
IC50 ([2]; A549, Lung): 9.19 µM
IC50 ([2]; A-172, Brain & Nerves): 7.07 µM
IC50 ([2]; AsPC-1, Pancreas): > 10 µM
IC50 ([2]; BxPC-3, Pancreas): 6.97 µM
IC50 ([2]; COLO 205, Large intestine/Colorectum): 6.75 µM
IC50 ([2]; Capan-1, Pancreas): > 10 µM
IC50 ([2]; D283 Med, Brain & Nerves): 9.26 µM
IC50 ([2]; DOHH-2, Blood/Lymphoma): 5.64 µM
IC50 ([2]; Daoy, Brain & Nerves): 7 µM
IC50 ([2]; Daudi, Blood/Lymphoma): 7.17 µM
IC50 ([2]; GRANTA-519, Blood/Lymphoma): 7.42 µM
IC50 ([2]; HBL-1, Blood/Lymphoma): 9.94 µM
IC50 ([2]; HCC44, Lung): 8.26 µM
IC50 ([2]; HOT 116, Large intestine/Colorectum, listed as A-1): 7.36 µM
IC50 ([2]; HT-29, Large intestine/Colorectum): 4.53 µM
IC50 ([2]; JVM-2, Blood/Lymphoma): 4.71 µM
IC50 ([2]; JeKo-1, Blood/Lymphoma): 7.94 µM
IC50 ([2]; KG-1, Blood/Leukaemia): > 10 µM
IC50 ([2]; Kasumi-1, Blood/Leukaemia): 5.13 µM
IC50 ([2]; LN-229, Brain & Nerves): 7.37 µM
IC50 ([2]; LoVo, Large intestine/Colorectum): 8.36 µM
IC50 ([2]; MIA PaCa-2, Pancreas): 9.17 µM
IC50 ([2]; ML-2, Blood/Leukaemia, listed as A-1): 4.01 µM
IC50 ([2]; MV-4-11, Blood/Leukaemia): 6.49 µM
IC50 ([2]; NAMALWA, Blood/Lymphoma): 7.05 µM
IC50 ([2]; NCI-H460, Lung): 8.13 µM
IC50 ([2]; NCI-H1299, Lung): 8.25 µM
IC50 ([2]; NCI-H1373, Lung): > 10 µM
IC50 ([2]; NCI-H1792, Lung): 7.73 µM
IC50 ([2]; NCI-H1975, Lung): 5.14 µM
IC50 ([2]; OCI-LY-19, Blood/Lymphoma): 6.67 µM
IC50 ([2]; PANC-1, Pancreas): > 10 µM
IC50 ([2]; Panc 10.05, Pancreas): 9 µM
IC50 ([2]; RKO, Large intestine/Colorectum): 6.17 µM
IC50 ([2]; Raji, Blood/Lymphoma): 3.91 µM
IC50 ([2]; Ramos, Blood/Lymphoma): 3.99 µM
IC50 ([2]; SK-MES-1, Lung): 7.78 µM
IC50 ([2]; SU-DHL-2, Blood/Lymphoma): 7.01 µM
IC50 ([2]; SU-DHL-6, Blood/Lymphoma): 3.98 µM
IC50 ([2]; SVV620, Large intestine/Colorectum, listed as A-1): 8.35 µM
IC50 ([2]; SW480, Large intestine/Colorectum): 7.55 µM
IC50 ([2]; SW1088, Brain & Nerves): 8.49 µM
IC50 ([2]; T98G, Brain & Nerves): 5.26 µM
IC50 ([2]; Toledo, Blood/Lymphoma): > 10 µM
IC50 ([2]; U118 MG, Brain & Nerves): 7.6 µM
IC50 ([2]; U-2932, Blood/Lymphoma): 4.47 µM
IC50 ([2]; WSU-DLCL2, Blood/Lymphoma): 6.74 µM
IC50 ([2]; Z-138, Blood/Lymphoma): 7.04 µM
% ee of sample @ 40° C. ([3]; 0 h): 100 % ee
% ee of sample @ 40° C. ([3]; 24 h): 100 % ee
% ee of sample @ 40° C. ([3]; 48 h): 100 % ee
% ee of sample @ 40° C. ([3]; 72 h): 100 % ee
% ee of sample @ 40° C. ([3]; 96 h): 100 % ee
% ee of sample @ 40° C. ([3]; 10 days): 100 % ee
% ee sample @ 80° C. ([3]; 0 h): 100 % ee
% ee sample @ 80° C. ([3]; 24 h): 100 % ee
% ee sample @ 80° C. ([3]; 96 h): 100 % ee
% ee sample @ 80° C. ([3]; 10 days): 100 % ee
atropisomer classification (LaPlante) ([3]; from stability of isolated atropisomers): Class 3
interconversion / racemization of atropisomers on heating ([3]; heating for 10 days at 40° C. and 80° C.): no interconversion was observed
SMILES: CN(C)CCNC(=O)c1ccc(-c2ccc(-c3ccc(Cl)cc3)n2-c2ccccc2C(F)(F)F)cc1 (single isomer, unassigned) [Atropisomer A-1, 4-[5-(4-chlorophenyl)-1-[2-(trifluoromethyl)phenyl]pyrrol-2-yl]-N-[2-(dimethylamino)ethyl]benzamide]
cells with abnormal cytokinesis (U87MG cells [4]): 24%
cells with non-congressed chromosomes (U87MG cells [4]): No evidence
cells with normal mitotic phenotype (U87MG cells [4]): 76%

GI50 [5]: 0.254 µM
IC50 (U87MG cells [1]; listed as A-4): 3.94 µM
GI50 (KRAS G12V HeLa cell line): 0.153 µM
SMILES: CN(C)CCNC(=O)c1ccc(-c2ccc(-c3ccc(Cl)cc3)n2-c2ccccc2C(F)(F)F)nc1 (single isomer, unassigned) [Atropisomer A-4, 6-[5-(4-chlorophenyl)-1-[2-(trifluoromethyl)phenyl]pyrrol-2-yl]-N-[2-(dimethylamino)ethyl]pyridine-3-carboxamide]

surface moisture uptake ([6]; at 90% RH): < 1%
SMILES: CN(C)CCNC(=O)c1ccc(-c2ccc(-c3ccc(Cl)cc3)n2-c2ccccc2C(F)(F)F)cc1 [(+)-L-tartaric acid salt, (R)-2,4-[5-(4-chlorophenyl)-1-[2-(trifluoromethyl)-phenyl]pyrrol-2-yl]-N-[2-(dimethylamino)-ethyl]benzamide (+)-L-tartaric acid salt]
water solubility compared with free base [7]: improved water solubility over the free base

moisture content before the first desorption ([6]; GVS, 25° C.): ca. 0.3%
moisture taken up between 80 and 90% RH ([6]; GVS, 25° C., 80-90% RH): ca. 0.8%
SMILES: CN(C)CCNC(=O)c1ccc(-c2ccc(-c3ccc(Cl)cc3)n2-c2ccccc2C(F)(F)F)cc1.O=C(O)C(O)C(O)C(=O)O [Tartrate Pattern B, (R)-4-[5-(4-chlorophenyl)-1-[2-(trifluoromethyl)phenyl]pyrrol-2-yl]-N-[2 (dimethylamino)ethyl]benzamide tartrate]
solid form stability under GVS ([6]; 0-90% RH cycling, XRPD post GVS): stable solid, only absorbing surface moisture with no change in form

From patent publication US20220348565A1, “PHARMACEUTICAL COMPOUNDS” (SENTINEL ONCOLOGY LIMITED, priority 2019, published 2022)
